Measured values from publication PMC7616161 (ACS chemical neuroscience, 2020).
Positions count from the first letter of the chain named.

How the values were obtained:
Format in all cases: cell-based
[1] = target: T1, hM1 WT mAChR (M1 muscarinic acetylcholine receptor) (Homo sapiens, UniProt P11229, A196G/Y106C); assay: whole-cell [3H]NMS inhibition binding, allosteric ternary complex model
T1 sequence (P11229 1-460 Y106C/A196G): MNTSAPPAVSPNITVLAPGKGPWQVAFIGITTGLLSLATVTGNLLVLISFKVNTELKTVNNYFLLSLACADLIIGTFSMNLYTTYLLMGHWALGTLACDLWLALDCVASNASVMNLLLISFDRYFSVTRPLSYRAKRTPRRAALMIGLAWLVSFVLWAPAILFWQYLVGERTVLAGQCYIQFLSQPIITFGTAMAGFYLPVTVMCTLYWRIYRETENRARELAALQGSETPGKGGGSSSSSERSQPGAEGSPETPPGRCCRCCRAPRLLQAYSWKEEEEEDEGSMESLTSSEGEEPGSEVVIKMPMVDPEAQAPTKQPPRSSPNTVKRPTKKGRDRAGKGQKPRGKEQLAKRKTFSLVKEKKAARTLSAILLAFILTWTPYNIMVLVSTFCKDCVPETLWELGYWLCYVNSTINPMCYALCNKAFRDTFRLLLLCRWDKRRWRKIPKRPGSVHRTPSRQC

[2] = target: T2, hM1 WT mAChR (M1 muscarinic acetylcholine receptor) (Homo sapiens, UniProt P11229); assay: IP1 accumulation; conditions: for pEC50^b / IP1 / M1WT: […] h, […] °C, pH […]
T2 sequence (P11229 1-460): T1 sequence (P11229 1-460 Y106C/A196G) with C106Y, G196A

[3] = target: T2, hM1 WT mAChR (M1 muscarinic acetylcholine receptor); assay: whole-cell [3H]NMS inhibition binding, allosteric ternary complex model
[4] = target: T1, hM1 WT mAChR (M1 muscarinic acetylcholine receptor); assay: IP1 accumulation
[5] = target: T1, hM1 WT mAChR (M1 muscarinic acetylcholine receptor); assay: cell-based
[6] = target: T2, hM1 WT mAChR (M1 muscarinic acetylcholine receptor); assay: cell-based
[7] = target: T3, hM1 WT mAChR (M1 muscarinic acetylcholine receptor) (Homo sapiens, UniProt P11229, Y106C/A196G); assay: whole-cell [3H]NMS inhibition binding, allosteric ternary complex model; conditions: M1 DREADD, printed as Y3.[…] and A5.[…]; HBSS, […] HEPES pH […]; allosteric
T3 sequence (P11229 1-460 Y106C/A196G): T1 sequence (P11229 1-460 Y106C/A196G)

[8] = target: T3, hM1 WT mAChR (M1 muscarinic acetylcholine receptor); assay: cell-based

Structure (SMILES): Cc1cnc(C(=O)N[C@H]2CCOC[C@@H]2O)cc1Cc1ccc(-c2cscn2)cc1 [PF-06767832, N-((3R,4S)-3-hydroxytetrahydro-2H-pyran-4-yl)-5-methyl-4-(4-(thiazol-4-yl)benzyl)pyridine-2-carboxamide]
- Ki [1]: 5.01 µM
- EC50 [2]: 0.0129 µM
- Ki [3]: 0.501 µM

Structure (SMILES): O=C(N[C@H]1CCCC[C@@H]1O)[C@H]1CN(Cc2ccc(-n3cccn3)cc2)c2ccccc2O1 [VU0486846, (2R)-N-[(1S,2S)-2-hydroxycyclohexyl]-4-[(4-pyrazol-1-ylphenyl)-methyl]-2,3-dihydro-1,4-benzoxazine-2-carboxamide]
- Ki [1]: 25.1 µM
- EC50 [2]: 0.372 µM
- Ki [3]: 0.794 µM

Structure (SMILES): C[N+]1([O-])CCN(C2=Nc3cc(Cl)ccc3Nc3ccccc32)CC1 [CNO]
- EC50 [4]: 0.00537 µM
- Ki [5]: 0.126 µM
- Ki [6]: 12.6 µM

Structure (SMILES): Cn1cc(-c2ccc(COc3ccccc3-c3cc(=O)n(C4CCCCC4O)cn3)cc2)cn1 (stereo not drawn) [MIPS1780, 3-(2-hydroxycyclohexyl)-6-(2-((4-(1-methyl-1H-pyrazol-4-yl)-benzyl)oxy)phenyl)-pyrimidin-4(3H)-one]
- pKI^b (nH)^c / M1DREADD [7]: 5.3 ± 0.09
- pEC50^b / IP1 / M1WT ([2]; allosteric agonist, no ACh added): 6.86 ± 0.19
- pKI^b (nH)^c / M1WT ([3]; HBSS, […] HEPES pH […], allosteric): 6.0 ± 0.10

Structure (SMILES): O=C1CCCN1CC#CCN1CCCC1 [oxotremorine]
- pKI^b (nH)^c / M1DREADD [8]: 4.3 ± 0.05
- pKI^b (nH)^c / M1WT [6]: 6.0 ± 0.04
- pEC50^b / IP1 / M1WT ([2]; orthosteric agonist): 7.68 ± 0.12
